From US9511073B2, “Aromatic amides and uses thereof” (TAXIS Pharmaceuticals, Inc., priority 2011, dated 2016)
≈ marks a conversion by molar mass, not a printed value.

Each compound was assayed on Staphylococcus aureus (Isolate ID ATCC 29213) (assay: Bacterial assay: MIC by broth microdilution or agar dilution (CLSI), S. aureus ATCC 29213). Details: Staphylococcus aureus, ATCC29213, read-out: S. aureus MIC (μg/mL) Activity Range, S. aureus (ATCC29213).
Format: cell-based
Procedure: Compounds are tested for antimicrobial activity by susceptibility testing in liquid or on solid media. Minimum inhibitory concentrations (MICs) for compounds against each strain are determined by the broth microdilution or agar dilution method according to the guidelines of the Clinical Laboratories and Standards Institute, formerly the National Committee for Clinical Laboratory Standards (Clinical Laboratories and Standards Institute. Methods for Dilution Antimicrobial Susceptibility Tests for Bacteria That Grow Aerobically; Approved Standard—Seventh Edition. Document M7-A7. CLSI, Wayne, Pa., 2006; Clinical Laboratories and Standards Institute). The bacterial strains tested include S. aureus (Staphylococcus aureus (Isolate ID ATCC 29213)) and an FtsZ mutant of this isolate (FtsZ-G196A Staphylococcus aureus (Isolate ID GG/190723/sa/1.2)). Compound MICs were determined to be in the following activity ranges “A” activity≦0.25 μg/mL; “B” activity>0.25 μg/mL-1.0 μg/mL; “C” activity>1.0 μg/mL-16 μg/mL; “D” activity>16 μg/mL and ND=not determined. The bracketed entries indicate entantiomer(s) and their activity.
Compound `CCc1oc(-c2ccc(OC)cc2)nc1C(CO)Oc1ccc(F)c(C(N)=O)c1F` (stereo not drawn) [Compound 306, 3-(1-(5-ethyl-2-(4-methoxyphenyl)oxazol-4-yl)-2-hydroxyethoxy)-2,6-difluorobenzamide] has an MIC of 1 to 16 µg/mL (≈ 2.39 to 38.2 µM). `NC(=O)c1c(F)ccc(OC(COC(=O)NCc2cccc[n+]2[O-])c2nc(-c3ccc(C(F)(F)F)cc3)c(Br)o2)c1F` (stereo not drawn) [Compound 173, 2-((((2-(5-bromo-4-(4-(trifluoromethyl)phenyl)oxazol-2-yl)-2-(3-carbamoyl-2,4-difluorophenoxy)ethoxy)carbonyl)amino)methyl)pyridine 1-oxide] gave an MIC of 0.25 to 1 µg/mL (≈ 0.38 to 1.52 µM). `CCNC(=O)NCC(Oc1ccc(F)c(C(N)=O)c1F)c1nc(-c2ccc(C(F)(F)F)cc2)c(Br)o1` (stereo not drawn) [Compound 291, 3-(1-(5-bromo-4-(4-(trifluoromethyl)phenyl)oxazol-2-yl)-2-(3-ethylureido)ethoxy)-2,6-difluorobenzamide] showed an MIC of less than 0.25 µg/mL. `CC(=O)OCCC(Oc1ccc(F)c(C(N)=O)c1F)c1nc(-c2ccc(C(F)(F)F)cc2)c(Br)o1` (stereo not drawn) [Compound 72, 3-(5-bromo-4-(4-(trifluoromethyl)phenyl)oxazol-2-yl)-3-(3-carbamoyl-2,4-difluorophenoxy)propyl acetate] showed an MIC of 1 to 16 µg/mL. For `NC(=O)c1c(F)ccc(OC(CCC(=O)O)c2nc(-c3ccc(C(F)(F)F)cc3)c(Br)o2)c1F` (stereo not drawn) [Compound 91, 4-(5-bromo-4-(4-(trifluoromethyl)phenyl)oxazol-2-yl)-4-(3-carbamoyl-2,4-difluorophenoxy)butanoic acid], the MIC was 1 to 16 µg/mL (≈ 1.82 to 29.1 µM). With `NC(=O)c1c(F)ccc(OC(CNC(=O)c2ccccn2)c2nc(-c3ccc(C(F)(F)F)cc3)c(Br)o2)c1F` (stereo not drawn) [Compound 296, N-(2-(5-bromo-4-(4-(trifluoromethyl)phenyl)oxazol-2-yl)-2-(3-carbamoyl-2,4-difluorophenoxy)ethyl)picolinamide] the MIC was less than 0.25 µg/mL. `CCOC(=O)C(CC(Oc1ccc(F)c(C(N)=O)c1F)c1nc(-c2ccc(C(F)(F)F)cc2)c(Br)o1)C(=O)OCC` (stereo not drawn) [Compound 119, diethyl 2-(2-(5-bromo-4-(4-(trifluoromethyl)phenyl)oxazol-2-yl)-2-(3-carbamoyl-2,4-difluorophenoxy)ethyl)malonate] showed an MIC greater than 16 µg/mL. In the case of `CC(Oc1ccc(F)c(C(N)=O)c1F)c1nc(-c2cnc(C(F)(F)F)nc2)c(Cl)o1` (stereo not drawn) [Compound 55], the MIC is reported as 1 to 16 µg/mL (≈ 2.23 to 35.7 µM). `CC(=O)OCC(COC(C)=O)CC(Oc1ccc(F)c(C(N)=O)c1F)c1nc(-c2ccc(C(F)(F)F)cc2)c(Br)o1` (stereo not drawn) [Compound 133, 2-(2-(5-bromo-4-(4-(trifluoromethyl)phenyl)oxazol-2-yl)-2-(3-carbamoyl-2,4-difluorophenoxy)ethyl)propane-1,3-diyl diacetate] was tested, and the MIC was greater than 16 µg/mL. Work on `NC(=O)c1c(F)ccc(OC(C(=O)O)c2csc(-c3ccc(C(F)(F)F)cc3)n2)c1F` (stereo not drawn) [Compound 127, 2-(3-carbamoyl-2,4-difluorophenoxy)-2-(2-(4-(trifluoromethyl)phenyl)thiazol-4-yl)acetic acid] yielded an MIC greater than 16 µg/mL. `CC(=O)OCC(Oc1ccc(F)c(C(N)=O)c1F)c1nc(-c2ccc(Cl)cc2)c(Cl)o1` (stereo not drawn) [Compound 46, 2-(3-carbamoyl-2,4-difluorophenoxy)-2-(5-chloro-4-(4-chlorophenyl)oxazol-2-yl)ethyl acetate] showed an MIC of 0.25 to 1 µg/mL. Compound `NC(=O)c1c(F)ccc(OC(CO)c2nc(-c3ccc(C(F)(F)F)cc3)c(C3CC3)o2)c1F` (stereo not drawn) [Compound 269, 3-(1-(5-cyclopropyl-4-(4-(trifluoromethyl)phenyl)oxazol-2-yl)-2-hydroxyethoxy)-2,6-difluorobenzamide] has an MIC of 1 to 16 µg/mL (≈ 2.14 to 34.2 µM). Compound `COc1ccc(-c2csc(C(CO)Oc3ccc(F)c(C(N)=O)c3F)n2)cc1` (stereo not drawn) [Compound 259, 2,6-difluoro-3-(2-hydroxy-1-(4-(4-methoxyphenyl)thiazol-2-yl)ethoxy)benzamide] has an MIC of 1 to 16 µg/mL (≈ 2.46 to 39.4 µM). `CN(C)C(=O)C(Oc1ccc(F)c(C(N)=O)c1F)c1nc(-c2ccc(Cl)cc2)cs1` (stereo not drawn) [Compound 31, 3-(1-(4-(4-chlorophenyl)thiazol-2-yl)-2-(dimethylamino)-2-oxoethoxy)-2,6-difluorobenzamide] was tested, and the MIC was 1 to 16 µg/mL (≈ 2.21 to 35.4 µM). `COc1ncc(-c2csc(C(C)Oc3ccc(F)c(C(N)=O)c3F)n2)s1` (stereo not drawn) [Compound 3] gave an MIC of less than 0.25 µg/mL. `NC(=O)c1c(F)ccc(OC(CO)c2nc(-c3ccc(Cl)cc3)cs2)c1F` (stereo not drawn) [Compound 13, 3-(1-(4-(4-chlorophenyl)thiazol-2-yl)-2-hydroxyethoxy)-2,6-difluorobenzamide] showed an MIC of 0.25 to 1 µg/mL (≈ 0.609 to 2.43 µM). `C=CCc1oc(C(C)Oc2ccc(F)c(C(N)=O)c2F)nc1-c1ccc(Cl)cc1` (stereo not drawn) [Compound 7] was tested, and the MIC was 0.25 to 1 µg/mL (≈ 0.597 to 2.39 µM). Compound `CS(=O)(=O)c1ccc(-c2nc(C(CO)Oc3ccc(F)c(C(N)=O)c3F)oc2Br)cc1` (stereo not drawn) [Compound 145, 3-(1-(5-bromo-4-(4-(methylsulfonyl)phenyl)oxazol-2-yl)-2-hydroxyethoxy)-2,6-difluorobenzamide] has an MIC greater than 16 µg/mL. Compound `COc1ccc(-c2nc(C(COC(C)=O)Oc3ccc(F)c(C(N)=O)c3F)oc2Br)cc1` (stereo not drawn) [Compound 111, 2-(5-bromo-4-(4-methoxyphenyl)oxazol-2-yl)-2-(3-carbamoyl-2,4-difluorophenoxy)ethyl acetate] has an MIC of 1 to 16 µg/mL. In the case of `CS(=O)(=O)NCC(Oc1ccc(F)c(C(N)=O)c1F)c1nc(-c2ccc(C(F)(F)F)cc2)co1` (stereo not drawn) [Compound 284, 2,6-difluoro-3-(2-(methylsulfonamido)-1-(4-(4-(trifluoromethyl)phenyl)oxazol-2-yl)ethoxy)benzamide], the MIC is reported as greater than 16 µg/mL. In the case of `NC(=O)c1cccc(OC(CO)c2nc(-c3ccc(C(F)(F)F)cc3)c(Br)o2)c1F` (stereo not drawn) [Compound 159, 3-(1-(5-bromo-4-(4-(trifluoromethyl)phenyl)oxazol-2-yl)-2-hydroxyethoxy)-2-fluorobenzamide], the MIC is reported as less than 0.25 µg/mL. Work on `CCC(Oc1ccc(F)c(C(N)=O)c1F)c1nc(-c2ccc(Cl)cc2)c(Br)o1` (stereo not drawn) [Compound 18, 3-(1-(5-bromo-4-(4-chlorophenyl)oxazol-2-yl)propoxy)-2,6-difluorobenzamide] yielded an MIC of 1 to 16 µg/mL (≈ 2.12 to 33.9 µM). `NC(=O)c1c(F)ccc(OC(CO)c2nc(Br)c(-c3ccc(C(F)(F)F)cc3)o2)c1F` (stereo not drawn) [Compound 149, 3-(1-(4-bromo-5-(4-(trifluoromethyl)phenyl)oxazol-2-yl)-2-hydroxyethoxy)-2,6-difluorobenzamide] showed an MIC of 1 to 16 µg/mL (≈ 1.97 to 31.5 µM). Compound `COc1cccc(-c2nc(C(CO)Oc3ccc(F)c(C(N)=O)c3F)oc2Br)c1` (stereo not drawn) [Compound 117, 3-(1-(5-bromo-4-(3-methoxyphenyl)oxazol-2-yl)-2-hydroxyethoxy)-2,6-difluorobenzamide] has an MIC greater than 16 µg/mL. `CN(CC(=O)OCC(Oc1ccc(F)c(C(N)=O)c1F)c1nc(-c2ccc(C(F)(F)F)cc2)c(Br)o1)C(=O)OC(C)(C)C` (stereo not drawn) [Compound 61, 2-(5-bromo-4-(4-(trifluoromethyl)phenyl)oxazol-2-yl)-2-(3-carbamoyl-2,4-difluorophenoxy)ethyl 2-((tert-butoxycarbonyl)(methyl)amino)acetate] gave an MIC of 0.25 to 1 µg/mL (≈ 0.369 to 1.47 µM). `NC(=O)c1c(F)ccc(OC(CNC(=O)CCC(=O)O)c2nc(-c3ccc(C(F)(F)F)cc3)c(Br)o2)c1F` (stereo not drawn) [Compound 302, 4-((2-(5-bromo-4-(4-(trifluoromethyl)phenyl)oxazol-2-yl)-2-(3-carbamoyl-2,4-difluorophenoxy)ethyl)amino)-4-oxobutanoic acid] showed an MIC of 1 to 16 µg/mL (≈ 1.65 to 26.4 µM). `NC(=O)c1c(F)ccc(OC(COC(=O)Nc2cccnc2)c2nc(-c3ccc(C(F)(F)F)cc3)c(Br)o2)c1F` (stereo not drawn) [Compound 170, 2-(5-bromo-4-(4-(trifluoromethyl)phenyl)oxazol-2-yl)-2-(3-carbamoyl-2,4-difluorophenoxy)ethyl pyridin-3-ylcarbamate] gave an MIC of 0.25 to 1 µg/mL (≈ 0.399 to 1.59 µM). With `COc1ccc(-c2nc(C(CO)Oc3ccc(F)c(C(N)=O)c3F)oc2Br)c(F)c1` (stereo not drawn) [Compound 234, 3-(1-(5-bromo-4-(2-fluoro-4-methoxyphenyl)oxazol-2-yl)-2-hydroxyethoxy)-2,6-difluorobenzamide] the MIC was 0.25 to 1 µg/mL (≈ 0.513 to 2.05 µM). `NC(=O)c1c(F)ccc(OC(COC(=O)NCCN2CCCC2)c2nc(-c3ccc(C(F)(F)F)cc3)c(Br)o2)c1F` (stereo not drawn) [Compound 161, 2-(5-bromo-4-(4-(trifluoromethyl)phenyl)oxazol-2-yl)-2-(3-carbamoyl-2,4-difluorophenoxy)ethyl (2-(pyrrolidin-1-yl)ethyl)carbamate] gave an MIC of 1 to 16 µg/mL (≈ 1.54 to 24.7 µM). Compound `NC(=O)c1c(F)ccc(OC(COC(=O)NCCc2c[nH]cn2)c2nc(-c3ccc(C(F)(F)F)cc3)c(Br)o2)c1F` (stereo not drawn) [Compound 162, 2-(5-bromo-4-(4-(trifluoromethyl)phenyl)oxazol-2-yl)-2-(3-carbamoyl-2,4-difluorophenoxy)ethyl (2-(1H-imidazol-4-yl)ethyl)carbamate] has an MIC of 1 to 16 µg/mL (≈ 1.55 to 24.8 µM). `CCOC(=O)C(Oc1ccc(F)c(C(N)=O)c1F)c1nc(-c2ccc(Cl)cc2)cs1` (stereo not drawn) [Compound 11, ethyl 2-(3-carbamoyl-2,4-difluorophenoxy)-2-(4-(4-chlorophenyl)thiazol-2-yl)acetate] was tested, and the MIC was less than 0.25 µg/mL. With `CN(C)C(=O)OCC(Oc1ccc(F)c(C(N)=O)c1F)c1nc(-c2ccc(C(F)(F)F)cc2)c(Br)o1` (stereo not drawn) [Compound 107, 2-(5-bromo-4-(4-(trifluoromethyl)phenyl)oxazol-2-yl)-2-(3-carbamoyl-2,4-difluorophenoxy)ethyl dimethylcarbamate] the MIC was less than 0.25 µg/mL. Compound `Cc1cc(CNC(=O)OCC(Oc2ccc(F)c(C(N)=O)c2F)c2nc(-c3ccc(C(F)(F)F)cc3)c(Br)o2)ccn1` (stereo not drawn) [Compound 200, 2-(5-bromo-4-(4-(trifluoromethyl)phenyl)oxazol-2-yl)-2-(3-carbamoyl-2,4-difluorophenoxy)ethyl ((2-methylpyridin-4-yl)methyl)carbamate] has an MIC of 0.25 to 1 µg/mL (≈ 0.381 to 1.53 µM).
